System: citrated whole blood
Assay: ROTEM (NATEM) of recalcified citrated whole blood with added bead suspension or supernatant
Assay type: cell-based, human
Details: cell-coated beads preincubated with TNFα 10 ng/ml for 12-16 h; compared with unstimulated cells
Experimental: To seed endothelial cells on microbeads, an approximate cell count of 400 OEC or HUVEC per bead was mixed with Cytodex 3 (collagen-coated) dextran microcarrier beads (GE Healthcare Bio-Sciences AB, Uppsala, Sweden) in 1 ml of EGM-2 medium. Beads and cells were incubated at 37° C. and 5% CO2 for 4 h and shaken gently every 20 min. After transferring the suspension to a 25-cm^2 tissue culture flask (Greiner Bio-One, Linz, Austria), microbeads were optionally incubated with TNFα (Sigma Aldrich, Vienna) at a final concentration of 10 ng/ml for 12-16 h at 37° C. and 5% CO2 in 4 ml of EGM-2 to simulate an inflammatory situation. To assess the influence of collagen, data from bare, collagen-coated Cytodex 3 were compared with uncoated Cytodex 1 (GE Healthcare Bio-Sciences AB, Uppsala, Sweden) beads in an identical setting.
Coated Beads and overnight-conditioned cell culture supernatant were gently taken up with a 10 ml serological pipette and transferred to a 15 ml Falcon tube. Once beads descended, the supernatant was carefully transferred to 1.5 ml tubes and centrifuged at 1,500×g for 20 minutes. […]
The following ROTEM parameters were calculated from the signal and included in the statistical analysis: Clotting time (CT, sec), latency until the clot reaches a firmness of 2 mm; measure for initial thrombin and fibrin formation. […]

In the case of TNFα, the “Clotting time (CT) after prior activation of cells” value was “significant further shortening of CT”.
